Legend:
[1] = biological target: T1, human recombinant norepinephrine transport binding sites (NET) (Homo sapiens, UniProt P23975); assay: Radioligand binding assay, norepinephrine transporter (NovaScreen)
T1 construct: NovaScreen, Hanover, Md; (contract laboratory that ran the assay)

children with ADHD = assay: Pediatric crossover efficacy study, SKAMP-Deportment score
[2] = Oral dose-escalation abuse liability study (pharmacokinetics) in adults with stimulant abuse history
[3] = Clinical pharmacokinetics, 25 and 75 mg, compared to Adderall XR and Dexedrine Spansule; details: human, in vivo, po; for AUC(0-inf): L-lysine-d-amphetamine intact conjugate AUCinf; for AUC(0-t): L-lysine-d-amphetamine intact conjugate AUClast; for Cmax: L-lysine-d-amphetamine intact conjugate Cmax; for half-life: L-lysine-d-amphetamine intact conjugate T1/2, human; for Tmax: L-lysine-d-amphetamine intact conjugate Tmax
[4] = 25 mg, oral 25 mg L-lysine-d-amphetamine, mean
[5] = 25 mg, oral 25 mg L-lysine-d-amphetamine, individual subjects
[6] = 25 mg, L-lysine-d-amphetamine intact conjugate concentration, oral 25 mg L-lysine-d-amphetamine, individual subjects
[7] = 25 mg, L-lysine-d-amphetamine intact conjugate concentration, oral 25 mg L-lysine-d-amphetamine, mean
[8] = 75 mg, oral 75 mg L-lysine-d-amphetamine, mean
[9] = 75 mg, L-lysine-d-amphetamine intact conjugate concentration, oral 75 mg L-lysine-d-amphetamine, mean

T1 sequence (P23975 whole entry): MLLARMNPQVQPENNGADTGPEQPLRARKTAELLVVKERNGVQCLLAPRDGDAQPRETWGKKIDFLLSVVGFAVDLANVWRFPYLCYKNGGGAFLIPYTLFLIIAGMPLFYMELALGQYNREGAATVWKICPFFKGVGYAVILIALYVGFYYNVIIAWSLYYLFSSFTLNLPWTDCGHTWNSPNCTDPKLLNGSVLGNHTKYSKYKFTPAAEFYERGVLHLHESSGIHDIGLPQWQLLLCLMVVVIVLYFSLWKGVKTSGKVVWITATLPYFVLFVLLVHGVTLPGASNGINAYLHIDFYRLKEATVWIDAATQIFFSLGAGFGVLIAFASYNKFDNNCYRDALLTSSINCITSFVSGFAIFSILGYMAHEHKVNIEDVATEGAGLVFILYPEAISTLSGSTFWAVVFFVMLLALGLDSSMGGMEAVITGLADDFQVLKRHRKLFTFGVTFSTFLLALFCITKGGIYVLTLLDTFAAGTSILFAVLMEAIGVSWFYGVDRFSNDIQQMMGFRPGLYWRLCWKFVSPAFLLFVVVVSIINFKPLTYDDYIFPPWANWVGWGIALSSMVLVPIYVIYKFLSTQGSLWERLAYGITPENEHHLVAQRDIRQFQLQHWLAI

CC(Cc1ccccc1)NC(=O)C(N)CCCCN [L-lysine-d-amphetamine, 2,6-diaminohexanoic acid-(1-methyl-2-phenylethyl)-amide]
inhibition at 10 µM ([1]; 10^−5 mol/L): 13.9% | inhibition at 0.1 µM ([1]; 10^−7 mol/L): -11.8% | inhibition at 0.001 µM ([1]; 10^−9 mol/L): 8.15% | Specific binding to norepinephrine transport binding sites ([1]; 10^−9 to 10^−5 M): did not bind | Activity ([1]; NE Transporter, radioligand [3H]-Nisoxetine, 10^−9 to 10^−5 M): No (No activity is defined as producing between −20% and 20% inhibition of radioligand binding (Novascreen).) | Duration of action (children with ADHD; children 6-12, SKAMP): 12 h | Onset of significant effects post morning dose (children with ADHD; children 6-12, SKAMP): ≤ 2 h | SKAMP-Deportment score compared to placebo (children with ADHD; children 6-12, once daily for 1 week each treatment): highly effective compared to placebo | Adverse reactions ([2]; adults with stimulant abuse, oral, 30-150 mg): mild in severity | half-life ([2]; human, in vivo, po): 26.4 to 45.6 min | AUC(0-inf) [3, 4]: 13.5 ng·h/mL | AUC(0-t) [3, 4]: 11.3 ng·h/mL | Cmax [3, 4]: 11.6 ng/mL | half-life [3, 5]: 28.2 min | half-life [3, 4]: 25.1 min | Tmax [3, 5]: 60 min | Tmax [3, 4]: 63 min | concentration at 0 h [3, 6]: 0 ng/mL | concentration at 0 h [3, 7]: 0 ng/mL | concentration at 0.5 h [3, 7]: 5.1 ng/mL | concentration at 1 h ([3]; 25 mg, L-lysine-d-amphetamine intact conjugate concentration, oral 25 mg L-lysine-d-amphetamine, 1 h, mean): 11.2 ng/mL | concentration at 2 h ([3]; 25 mg, L-lysine-d-amphetamine intact conjugate concentration, oral 25 mg L-lysine-d-amphetamine, 2 h, mean): 2.2 ng/mL | concentration at 3 h [3, 6]: 0 ng/mL | concentration at 3 h [3, 7]: 0 ng/mL | concentration at 4 h [3, 6]: 0 ng/mL | concentration at 4 h [3, 7]: 0 ng/mL | concentration at 5 h [3, 6]: 0 ng/mL | concentration at 5 h [3, 7]: 0 ng/mL | concentration at 6 h [3, 6]: 0 ng/mL | concentration at 6 h [3, 7]: 0 ng/mL | concentration at 7 h [3, 6]: 0 ng/mL | concentration at 7 h [3, 7]: 0 ng/mL | concentration at 8 h [3, 6]: 0 ng/mL | concentration at 8 h [3, 7]: 0 ng/mL | concentration at 10 h [3, 6]: 0 ng/mL | concentration at 10 h [3, 7]: 0 ng/mL | concentration at 12 h [3, 6]: 0 ng/mL | concentration at 12 h [3, 7]: 0 ng/mL | concentration at 16 h [3, 6]: 0 ng/mL | concentration at 16 h [3, 7]: 0 ng/mL | concentration at 24 h [3, 6]: 0 ng/mL | concentration at 24 h [3, 7]: 0 ng/mL | concentration at 48 h [3, 6]: 0 ng/mL | concentration at 48 h [3, 7]: 0 ng/mL | concentration at 72 h [3, 6]: 0 ng/mL | concentration at 72 h [3, 7]: 0 ng/mL | AUC(0-inf) [3, 8]: 59.5 ng·h/mL | AUC(0-t) [3, 8]: 58.1 ng·h/mL | Cmax [3, 8]: 53.6 ng/mL | half-life [3, 8]: 32 min | Tmax ([3]; 75 mg, oral 75 mg L-lysine-d-amphetamine, individual subjects): 60 min | Tmax [3, 8]: 63 min | concentration at 0 h ([3]; 75 mg, L-lysine-d-amphetamine intact conjugate concentration, oral 75 mg L-lysine-d-amphetamine, individual subjects): 0 ng/mL | concentration at 0 h [3, 9]: 0 ng/mL | concentration at 0.5 h [3, 9]: 20.5 ng/mL
